A word on the HC50: it is the concentration giving 50% haemolysis.

Values after ≈ are worked out from the molar mass of the structure shown. Like-named read-outs stand apart in the source and are kept apart here. Where a SMILES comes first, the peptide text is derived from it. [ ]: non-standard residue; d: D form. Gly(N(CH2)2(3-indolyl)) = O=C(O)CNCCc1c[nH]c2ccccc12; Nspe = C[C@H](NCC(=O)O)c1ccccc1; Nlys = NCCCCNCC(=O)O A value given as a limit tells only on which side of the number the result lay.

Data set [1] relates to Enterococcus faecalis KCTC 3511. The data set is described as follows: MIC in multidrug-resistant bacteria, modified microdilution method. The data set is classed as cell-based. Particulars: Table 14. Here is the method:
(§1) The MIC of the prepared peptoid in multidrug-resistant bacteria was measured using a modified microdilution method in a Difco Mueller Hinton medium, and a test was performed on a bacterial pathogen panel with resistant and tolerance to general antibiotics.
(§2) Briefly, a medium containing bovine serum albumin and 0.001% acetic acid was used to continuously dilute a peptoid concentrate 10-times stronger than the final concentration. 10 uμL of the 10-time stronger peptoid concentrate and 90 μL of a Muleller Hinton medium were added to each well of a 96-well plate. Bacteria were added to the plate until the final concentration reached 2×10^5 CFU/mL and then incubated at […] overnight. MIC was defined as a concentration at which bacterial growth is not observed.

A further data set relates to E. coli KCTC 2411. The description is as above. The data set is classed as cell-based. The note with it: Table 14. Here is the method: as §1, §2
For data set [2], the system named is Enterobacter SP KCTC 2625. The data set is described as above. The data set is classed as cell-based. Particulars: Table 14. Here is the method: as §1, §2
Another data set has as its system P. aeruginosa KCTC 1637. The description is as above. The data set is classed as cell-based. The note with it: Table 14. Here is the method:
as §1, §2

In data set [3] the test system is Enterococcus Faecium KCTC 13225. Described as above. The note with it: Table 14. Format: cell-based. Here is the method:
as §1, §2

Data set [4] concerns human keratinocytes (HaCaT). The data set is described as follows: in vitro. Here is the method:
(§3) Human lung cells (MRC-5) were purchased from the Korean Cell Line Bank, and human keratinocytes (HaCaT) were purchased from the AmorePacific R&D Center. All cells were grown in a Dulbecco's modified Eagle's medium containing 10% fetal bovine serum under conditions of 5% CO2 and 37° C. To confirm the effect of a peptoid on cell growth, 3-(4,5-dimethylthiazol-2-yl)-5-(3-carboxymethoxyphenyl)-2-(4-sulfophenyl)-2H-tetrazolium (MTS) cell assay was performed to determine cell viability. An aliquot (100 μL) of a batch including 1.3×10^4 MRC-5 cells/mL or 3×10^4 HaCaT cells/mL was dispensed into each well of a 96-well plate. The cells were grown at 37° C. in a 5% CO2 humid atmosphere and allowed to adhere for 24 hours. When the cells reached approximately 70% confluency, the medium was replaced with serial dilutions of the peptoid stock and incubated for 24 hours. 20 μL of a CellTiter 96 aqueous non-radioactive cell proliferation assay reagent (Promega, USA) including a tetrazolium compound was added to each well.
(§4) The contents in the plate were metabolized by incubating at 37° C. for 4 hours. An MTS-formazan product of viable cells was measured at 490 nm using a microplate reader, and cell viability (%) was calculated by Equation 2 below and compared with untreated cells.
(§5) Cell viability (%)=[A/(Acontrol)]×100 [Equation 2]
(§6) In Equation 2, A is the absorbance of a test well, and Acontrol is the average absorbance of a well containing untreated cells.
(§7) The term “nd” shown in Table 19 below is the abbreviation for not determined, and indicates a value that is too small or too large to be measured.

The nature of another data set: in vitro. Here is the method:
as §3, §4, §5, §6, §7

The next data set has as its system Human lung cells (MRC-5). The data set is described as follows: in vitro. Here is the method: as §3, §4, §5, §6, §7
The nature of data set [5]: HPLC to confirm peptoid decomposition after counter ion substitution. The data set is classed as physicochemical. The note with it: HPLC at 220 nm; HCl and AcOH.
The next data set concerns S. aureus ATCC 25923. The procedure, abridged: (§8)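 Cation-adjusted MHB2 cultures (18 h, subcultured 4 h) adjusted to 2×10^5–5×10^5 CFU/mL in medium with 0.02% BSA and 0.001% acetic acid.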
The next data set has as its system E. coli ATCC25922. In short, it runs like this: as §8
The next data set relates to red blood cells. The data set is described as follows: Hemolysis assay. The data set is classed as cell-based, Sprague-Dawley mouse. In short, it runs like this: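 Peptoid is mixed with 10% (v/v) PBS-washed erythrocytes (male Sprague-Dawley […], 13 weeks) and held 1 h at 37 °C. Hemolysis is calculated from 540 nm absorbance of the supernatant, with PBS as 0% and Triton X-100 as 100%.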

Setting [6] is: Tables 11-13, 24 hours at 37° C., maximum concentration 25 μM.
Setting [7] is: Table 18, TFA salt vs counter ion-substituted (HCl, AcOH) peptoids.
The mark [8] stands for this setting: Table 18, TFA salt vs counter ion-substituted peptoids.

In data set [1], `C[C@@H](c1ccccc1)N(CC(N)=O)C(=O)CN(CCCCN)C(=O)CN(CCCCN)C(=O)CN(C(=O)CN(C(=O)CN(CCCCN)C(=O)CN(C(=O)CN(C(=O)CN(CCCCN)C(=O)CN(CCc1c[nH]c2ccccc12)C(=O)CN(CCc1c[nH]c2ccccc12)C(=O)CNCCCCN)[C@@H](C)c1ccccc1)[C@@H](C)c1ccccc1)[C@@H](C)c1ccccc1)[C@@H](C)c1ccccc1` [Peptoid 32, H-NLys-NhTrp-NhTrp-NLys-Nspe-Nspe-NLys-Nspe-Nspe-NLys-NLys-Nspe-NH2] returned an MIC Enterococcus faecalis KCTC 3511 of 6.3 µM (≈ 11.7 µg/mL). Moreover, in the data set on E. coli KCTC 2411, the MIC E. coli KCTC 2411 was 6.3 µM (≈ 11.7 µg/mL). Further, the MIC Enterobacter SP KCTC 2625 in [2] is 3.1 µM (≈ 5.78 µg/mL). Further, in the data set on P. aeruginosa KCTC 1637, the MIC P. aeruginosa KCTC 1637 worked out at 25 µM (≈ 46.6 µg/mL). Besides, in data set [3], the MIC Enterococcus Faecium KCTC 13225 is 3.1 µM (≈ 5.78 µg/mL). The “lower toxicity against HaCaT cells compared to the peptoid having a TFA salt” value in data set [4] was 20%. In addition, the CC50 at 24 h worked out at 17.1 µM in the data set “in vitro” (human, LC50 HaCaT) and 14.5 µM in “in vitro” (human, LC50 MRC-5). In addition, the “lower toxicity against MRC-5 cells compared to the peptoid having a TFA salt” value in the data set with Human lung cells (MRC-5) is reported as 20%. For the same compound, the “peptoid decomposition after counter ion substitution (in words)” value (“peptoid decomposition” below) in data set [5] is “almost no peptoid decomposition occurred”. The “MIC S. aureus ATCC 25923” value with S. aureus ATCC 25923 (ATCC 25923) and with S. aureus ATCC 25923 (setting [6]) was 3.1 µM (≈ 5.78 µg/mL) throughout. In addition, the “MIC E. coli ATCC25922” value in the data set on E. coli ATCC25922 (setting [7]) worked out at 6.3 µM; against E. coli ATCC25922 (setting [6]) it was 6.3 µM (≈ 11.7 µg/mL).
In data set [1], `C[C@@H](c1ccccc1)N(CC(=O)N(CCCCN)CC(=O)N(CCc1c[nH]c2ccccc12)CC(=O)N(CCc1c[nH]c2ccccc12)CC(N)=O)C(=O)CN(CCCCN)C(=O)CN(CCCCN)C(=O)CN(C(=O)CN(C(=O)CN(CCCCN)C(=O)CN(C(=O)CN(C(=O)CNCCCCN)[C@@H](C)c1ccccc1)[C@@H](C)c1ccccc1)[C@@H](C)c1ccccc1)[C@@H](C)c1ccccc1` [Peptoid 29, H-NLys-Nspe-Nspe-NLys-Nspe-Nspe-NLys-NLys-Nspe-NLys-NhTrp-NhTrp-NH2] (H-[Nlys][Nspe][Nspe][Nlys][Nspe][Nspe][Nlys][Nlys][Nspe][Nlys][Gly(N(CH2)2(3-indolyl))][Gly(N(CH2)2(3-indolyl))]-NH2) displayed an MIC Enterococcus faecalis KCTC 3511 of 3.1 µM (≈ 5.78 µg/mL). Besides, the MIC E. coli KCTC 2411 in the data set on E. coli KCTC 2411 came to 6.3 µM (≈ 11.7 µg/mL). This compound also had an MIC Enterobacter SP KCTC 2625 in [2] of 3.1 µM (≈ 5.78 µg/mL). In addition, the MIC P. aeruginosa KCTC 1637 in the data set on P. aeruginosa KCTC 1637 stood at 50 µM (≈ 93.2 µg/mL). In [3], the MIC Enterococcus Faecium KCTC 13225 came to 1.6 µM (≈ 2.98 µg/mL). Moreover, in [4], the “lower toxicity against HaCaT cells compared to the peptoid having a TFA salt” value is recorded as 20%. In “in vitro” (human, LC50 HaCaT), this compound gave a CC50 at 24 h of 18.8 µM. Further, the “lower toxicity against MRC-5 cells compared to the peptoid having a TFA salt” value with Human lung cells (MRC-5) was found to be 20%. Also, in data set [5], the “peptoid decomposition” value is recorded as “almost no peptoid decomposition occurred”. The “MIC S. aureus ATCC 25923” value in the data set with S. aureus ATCC 25923 (setting [7]) stood at 12.5 µM; in the data set on S. aureus ATCC 25923 (setting [6]) it was 6.3 µM (≈ 11.7 µg/mL). The “MIC E. coli ATCC25922” value in the data set with E. coli ATCC25922 (setting [7]) was 6.3 µM; in the data set on E. coli ATCC25922 (setting [6]) it was 6.3 µM (≈ 11.7 µg/mL).
The compound `C[C@@H](c1ccccc1)N(CC(N)=O)C(=O)CN(C(=O)CN(CCCCN)C(=O)CN(C(=O)CN(C(=O)CN(CCCCN)C(=O)CN(C(=O)CN(C(=O)CN(CCCCN)C(=O)CN(C(=O)CN(C(=O)CNCCCCN)[C@@H](C)c1ccccc1)[C@@H](C)c1ccccc1)[C@@H](C)c1ccccc1)[C@@H](C)c1ccccc1)[C@@H](C)c1ccccc1)[C@@H](C)c1ccccc1)[C@@H](C)c1ccccc1` [Peptoid 1, H-NLys-Nspe-Nspe-NLys-Nspe-Nspe-NLys-Nspe-Nspe-NLys-Nspe-Nspe-NH2, reference compound] (H-[Nlys][Nspe][Nspe][Nlys][Nspe][Nspe][Nlys][Nspe][Nspe][Nlys][Nspe][Nspe]-NH2) had an MIC Enterococcus faecalis KCTC 3511 in [1] of 0.8 µM (≈ 1.46 µg/mL). The compound further gave an MIC E. coli KCTC 2411 in the data set with E. coli KCTC 2411 of 6.3 µM (≈ 11.5 µg/mL). The MIC Enterobacter SP KCTC 2625 in data set [2] was determined as 6.3 µM (≈ 11.5 µg/mL). For the same compound, the MIC P. aeruginosa KCTC 1637 against P. aeruginosa KCTC 1637 turned out to be 25 µM (≈ 45.5 µg/mL). The MIC Enterococcus Faecium KCTC 13225 in [3] is less than 0.8 µM. Moreover, the CC50 at 24 h worked out at 7.3 µM in “in vitro” and 8.1 µM in “in vitro” (LC50 MRC-5, 24 hours incubation, concentration that causes 50% cell lethality). In [5], the “peptoid decomposition” value was “almost no peptoid decomposition occurred”. The HC10 with red blood cells (setting [8]) stood at 15.9 µM; with red blood cells (Tables 11-13, concentration that induces hemolysis in 10% red blood cells), 8.3 µM. Besides, the HC50 amounted to 49.0 µM in the data set with red blood cells (setting [8]) and 22.9 µM in the data set on red blood cells (Tables 11-13, concentration that induces hemolysis in 50% red blood cells). In addition, the “Hmax (100 μM)” value in the data set on red blood cells (setting [8]) came to 72.1 ± 2.1%; with red blood cells (Tables 11-13, hemolysis rate at maximum peptoid concentration) it was 112.3 ± 0.7%; in the data set with red blood cells (hemolysis at 100 μM) it was 75.8. Moreover, in the data set on red blood cells (first value of HD10/HD50 cell, hemolysis, in µM), the HD10 turned out to be 22.9. Moreover, the HD50 with red blood cells (second value of HD10/HD50 cell, hemolysis, in µM) was 79.0. The “MIC S. aureus ATCC 25923” value stood at 1.6 µM with S. aureus ATCC 25923 (setting [7]); 1.6 µM (≈ 2.91 µg/mL) in the data set with S. aureus ATCC 25923 (setting [6]); 1.6 µM (≈ 2.91 µg/mL) with S. aureus ATCC 25923 (gram-positive bacteria, S. aureus ATCC25923 strain). Besides, the “MIC E. coli ATCC25922” value worked out at 6.3 µM in the data set with E. coli ATCC25922 (setting [7]); 6.3 µM (≈ 11.5 µg/mL) in the data set on E. coli ATCC25922 (setting [6]); 3.1 µM (≈ 5.64 µg/mL) with E. coli ATCC25922 (gram-negative bacteria, E. coli ATCC25922 strain).
